Reference: the supplement of paper PMC10307832

Experiments:
Experiment in all cases: relative viability (nuclei count vs DMSO), 5 days (fraction); higher = more cells survive
AZD8055 + Luminespib = compound: COc1ccc(-c2ccc3c(N4CCOC[C@@H]4C)nc(N4CCOC[C@@H]4C)nc3n2)cc1CO [AZD8055] + CCNC(=O)c1noc(-c2cc(C(C)C)c(O)cc2O)c1-c1ccc(CN2CCOCC2)cc1 [Luminespib] (partner 0.01 µM)
Outline: (§1)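 After 5 days of treatment, lung cancer cells in 1536-well plates were fixed and stained in a single step (final 0.05% Triton X-100, 1% formaldehyde, 1 ug/ml Hoechst) and their nuclei counted on 4× images. Treatment had been applied by pin tool the day after seeding as one drug alone or as a fixed anchor-drug dose with five library-drug doses (not always all listed) in √10 steps. Relative viability is the nuclei count of treated wells divided by that of vehicle wells, and values are medians of duplicate plates.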

AZD8055 + Dasatinib = compound: COc1ccc(-c2ccc3c(N4CCOC[C@@H]4C)nc(N4CCOC[C@@H]4C)nc3n2)cc1CO [AZD8055] + Cc1nc(Nc2ncc(C(=O)Nc3c(C)cccc3Cl)s2)cc(N2CCN(CCO)CC2)n1 [Dasatinib] (partner 0.075 µM)
Outline: as §1

AZD8055 + Decitabine = compound: COc1ccc(-c2ccc3c(N4CCOC[C@@H]4C)nc(N4CCOC[C@@H]4C)nc3n2)cc1CO [AZD8055] + Nc1ncn([C@H]2C[C@H](O)[C@@H](CO)O2)c(=O)n1 [Decitabine] (partner 2 µM)
Outline: as §1

AZD8055 + Foretinib = compound: COc1ccc(-c2ccc3c(N4CCOC[C@@H]4C)nc(N4CCOC[C@@H]4C)nc3n2)cc1CO [AZD8055] + COc1cc2c(Oc3ccc(NC(=O)C4(C(=O)Nc5ccc(F)cc5)CC4)cc3F)ccnc2cc1OCCCN1CCOCC1 [Foretinib] (partner 0.25 µM)
Outline: as §1

| Cell Line | relative viability (AZD8055 + Luminespib; first compound 0.01 µM) | relative viability (AZD8055 + Luminespib; first compound 0.03162 µM) | relative viability (AZD8055 + Luminespib; first compound 0.1 µM) | relative viability (AZD8055 + Luminespib; first compound 0.3162 µM) | relative viability (AZD8055 + Luminespib; first compound 1 µM) | relative viability (AZD8055 + Dasatinib; first compound 0.01 µM) | relative viability (AZD8055 + Dasatinib; first compound 0.03162 µM) | relative viability (AZD8055 + Dasatinib; first compound 0.1 µM) | relative viability (AZD8055 + Dasatinib; first compound 0.3162 µM) | relative viability (AZD8055 + Dasatinib; first compound 1 µM) | relative viability (AZD8055 + Decitabine; first compound 0.01 µM) | relative viability (AZD8055 + Decitabine; first compound 0.03162 µM) | relative viability (AZD8055 + Decitabine; first compound 0.1 µM) | relative viability (AZD8055 + Decitabine; first compound 0.3162 µM) | relative viability (AZD8055 + Decitabine; first compound 1 µM) | relative viability (AZD8055 + Foretinib; first compound 0.01 µM) | relative viability (AZD8055 + Foretinib; first compound 0.03162 µM) | relative viability (AZD8055 + Foretinib; first compound 0.1 µM) | relative viability (AZD8055 + Foretinib; first compound 0.3162 µM) | relative viability (AZD8055 + Foretinib; first compound 1 µM) |
| --- | --- | --- | --- | --- | --- | --- | --- | --- | --- | --- | --- | --- | --- | --- | --- | --- | --- | --- | --- | --- |
| 201T | 0.979 | 1.01 | 0.814 | 0.421 | 0.42 | 0.537 | 0.564 | 0.501 | 0.398 | 0.416 | 0.863 | 0.711 | 0.692 | 0.579 | 0.527 | 1.34 | 1.08 | 0.892 | 0.391 | 0.328 |
| A549 |  |  |  |  |  |  |  |  |  |  | 0.389 | 0.101 | 0.184 | 0.13 | 0.101 | 0.929 | 0.831 | 0.638 | 0.123 | 0.0603 |
| A-427 | 1.3 | 0.832 | 0.817 | 0.482 | 0.581 | 0.666 | 0.632 | 0.572 | 0.281 | 0.339 | 0.552 | 0.491 | 0.494 | 0.415 | 0.389 | 0.954 | 0.983 | 0.856 | 0.491 | 0.416 |
| ABC-1 | 0.434 | 0.521 | 0.289 | 0.331 | 0.284 | 0.692 | 0.548 | 0.526 | 0.219 | 0.3 | 1.16 | 1.51 | 0.825 | 0.697 | 0.576 | 1.2 | 0.909 | 0.997 | 0.701 | 0.324 |
| BEN | 0.242 | 0.179 | 0.305 | 0.216 | 0.192 | 0.273 | 0.246 | 0.205 | 0.237 | 0.171 | 0.691 | 0.63 | 0.435 | 0.49 | 0.453 | 0.533 | 0.463 | 0.389 | 0.284 | 0.284 |
| CAL-12T | 0.321 | 0.203 | 0.131 | 0.152 | 0.139 | 0.536 | 0.388 | 0.34 | 0.136 | 0.12 |  |  |  |  |  | 1.25 | 1.22 | 1.01 | 0.414 | 0.279 |
| COR-L23 | 0.773 | 0.625 | 0.381 | 0.118 | 0.137 | 0.581 | 0.44 | 0.309 | 0.137 | 0.164 | 0.401 | 0.298 | 0.305 | 0.209 | 0.191 | 1.24 | 0.893 | 0.822 | 0.353 | 0.233 |
| COR-L 105 | 0.733 | 0.912 | 0.349 | 0.3 | 0.268 | 0.359 | 0.281 | 0.23 | 0.2 | 0.226 | 0.718 | 0.714 | 0.579 | 0.445 | 0.431 | 1.55 | 1.03 | 1.31 | 0.756 | 0.476 |
| Calu-6 |  |  |  |  |  |  |  |  |  |  |  |  |  |  |  | 0.878 | 0.839 | 0.691 | 0.439 | 0.346 |
| ChaGo-K-1 | 0.611 | 0.604 | 0.533 | 0.423 | 0.297 | 0.614 | 0.537 | 0.433 | 0.375 | 0.352 | 0.506 | 0.425 | 0.528 | 0.494 | 0.441 | 1.07 | 0.862 | 0.81 | 0.61 | 0.621 |
| EBC-1 |  |  |  |  |  |  |  |  |  |  |  |  |  |  |  | 0.102 | 0.126 | 0.116 | 0.114 | 0.127 |
| EKVX | 0.949 | 0.866 | 0.655 | 0.355 | 0.248 | 0.443 | 0.615 | 0.419 | 0.317 | 0.263 | 0.361 | 0.286 | 0.298 | 0.251 | 0.26 | 0.872 | 1.25 | 0.731 | 0.702 | 0.367 |
| EMC-BAC-2 | 1.18 | 1.05 | 0.867 | 0.534 | 0.403 | 0.32 | 0.25 | 0.234 | 0.186 | 0.186 | 1.02 | 0.875 | 0.817 | 0.498 | 0.505 | 0.965 | 0.846 | 0.809 | 0.393 | 0.347 |
| EPLC-272H | 0.182 | 0.12 | 0.178 | 0.22 | 0.182 | 0.333 | 0.221 | 0.173 | 0.109 | 0.128 | 0.41 | 0.265 | 0.272 | 0.248 | 0.226 | 0.537 | 0.418 | 0.378 | 0.274 | 0.21 |
| H3255 | 0.879 | 0.804 | 0.845 | 0.382 | 0.381 | 0.364 | 0.429 | 0.3 | 0.323 | 0.306 | 0.535 | 0.568 | 0.48 | 0.316 | 0.281 | 0.562 | 0.769 | 0.786 | 0.418 | 0.308 |
| HARA | 1.44 | 0.584 | 0.393 | 0.112 | 0.12 | 0.282 | 0.294 | 0.221 | 0.155 | 0.221 |  | 0.355 | 0.414 | 0.321 | 0.357 | 0.983 | 0.762 | 0.374 | 0.272 | 0.258 |
| HCC-15 | 0.304 | 0.39 | 0.262 | 0.208 | 0.242 | 0.615 | 0.541 | 0.477 | 0.273 | 0.174 | 0.667 | 0.587 | 0.597 | 0.319 | 0.255 | 1.05 | 0.969 | 0.755 | 0.537 | 0.445 |
| HCC-44 | 1.03 | 0.974 | 0.804 | 0.439 | 0.429 |  |  |  |  |  | 0.971 | 0.849 | 0.812 | 0.8 | 0.735 |  |  |  |  |  |
| HCC-78 |  |  |  |  |  | 0.328 | 0.306 | 0.222 | 0.233 | 0.247 | 0.729 | 0.437 | 0.564 | 0.381 | 0.412 | 0.496 | 0.527 | 0.388 | 0.417 | 0.308 |
